These results are taken from US10882865B2, “Pyrrolopyrimidine compounds and uses thereof for modulating glucocerebrosidase activity” (Northwestern University, priority 2018, dated 2021).

For this test, the target named is T1, glucocerebrosidase (GCase) (Homo sapiens, UniProt P04062).
T1 sequence (P04062 40-536): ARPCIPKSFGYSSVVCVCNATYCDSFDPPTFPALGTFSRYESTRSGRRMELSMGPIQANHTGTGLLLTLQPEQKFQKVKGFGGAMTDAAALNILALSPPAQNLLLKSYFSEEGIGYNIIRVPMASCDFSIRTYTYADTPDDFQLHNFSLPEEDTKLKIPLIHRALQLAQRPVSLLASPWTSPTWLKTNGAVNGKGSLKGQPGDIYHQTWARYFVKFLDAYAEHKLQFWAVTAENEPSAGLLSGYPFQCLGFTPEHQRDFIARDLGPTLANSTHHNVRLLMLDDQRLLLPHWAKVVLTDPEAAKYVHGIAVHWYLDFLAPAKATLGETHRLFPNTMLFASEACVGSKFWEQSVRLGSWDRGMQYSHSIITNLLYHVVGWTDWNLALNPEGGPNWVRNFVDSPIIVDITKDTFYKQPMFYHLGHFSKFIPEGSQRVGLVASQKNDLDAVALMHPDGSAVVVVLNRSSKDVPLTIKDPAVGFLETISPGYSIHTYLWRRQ
The test is described as follows: Glucocerebrosidase activation (Table 1, Exemplary Compounds and Activities). Format: biochemical. The note with it: activation of glucocerebrosidase; for Emax: read-out: Maximum Activation (Emax). An excerpt: The compounds disclosed herein preferably modulate activity of glucocerebrosidase. Modulation may include inhibiting or decreasing glucocerebrosidase activity. Modulation also may include activating or increasing glucocerebrosidase activity. Glucocerebrosidase activity may be assessed utilizing methods known in the art and the methods disclosed herein, including the methods disclosed in the Examples provided herein. In some embodiments, the compounds decrease or increase glucocerebrosidase activity relative to a control (e.g., by at least about 10%, 20%, 30%, 40%, 50%, 60%, 70%, 80%, 90%, 100%, 200%, 300%, 400%, 500%, 600%, 700%, 800%, 900%, 1000% or more (or within a range bounded by any of these values)). In other embodiments, the compounds activate glucocerebrosidase greater than about 2-fold, 3-fold, 4-fold, 5-fold, 10-fold, 20-fold, 30-fold, 40-fold, 50-fold, 60-fold, 70-fold, 80-fold, 90-fold, or 100-fold, relative to a control. […] In other embodiments, an AC50 value for the compound in regard to activation of glucocerebrosidase may be determined and preferably the compound has an AC50 value of less than about 10 μM, 5 μM, or 1 μM, 0.5 μM, 0.1 μM, 0.05 μM, 0.01 μM, 0.005 μM, or 0.001 μM (or within a range bounded by any of these values).
Methods for measuring glucocerebrosidase activity are known in the art. (See, e.g., U.S. Publication No. 2017/0001976 and U.S. Publication No. 2017/0002013 and Zheng et al. “Design and Synthesis of Potent Quinazolines as Selective β-Glucocerebrosidase Modulators, J. Med. Chem. 2016 September 22; 59(18): 8508-8520; the contents of which are incorporated herein by reference in their entireties).
The disclosed pyrrolopyrimidine compounds were synthesized and tested using the methods described below. Additional methods for synthesizing and testing pyrrolopyrimidine compounds are described in the art. (See, e.g., Zheng et al., β-Glucocerebrosidase Modulators Promote Dimerization of β-Glucocerebrosidase and Reveal an Allosteric Binding Site, J. Am. Chem. Soc., 2018, 140 (18), pp 5914-5924; and U.S. Pat. No. 9,802,942; the contents of which are incorporated herein by reference in their entireties).

By AC50 is commonly meant the concentration at which the activity in the assay is half-maximal. A lower AC50 goes with activity at low concentration. Broadly, the Emax is the maximal effect, on the per cent scale that the assay sets. As to `COC(=O)Cc1cccc(NC(=O)c2ccn3c(C)cc(C)nc23)c1` [compound 1], the activity was half-maximal at 6.59 µM (AC50) and the Emax came out at 450%.

Regarding `Cc1cc(C)n2ccc(C(=O)Nc3cccc(CC(=O)O)c3)c2n1` [compound 2], the AC50 stood at 30 µM and the Emax came to 550%.

Consider `Cc1cc(C)n2ccc(C(=O)Nc3cccc(CC(=O)ON4C(=O)CCC4=O)c3)c2n1` [compound 3, 2,5-dioxopyrrolidin-1-yl 2-(3-(2,4-dimethylpyrrolo[1,2-a]pyrimidine-8-carboxamido)phenyl)acetate], for which half-maximal activity (AC50) was put at 9.09 µM and the maximum response (Emax) was found to be 500%.

For `CCOC(=O)c1cccc(NC(=O)c2ccn3c(C)cc(C)nc23)c1` [compound 4], the AC50 stood at 1.18 µM and the maximum response (Emax) was 400%.

As for `Cc1cc(C)n2ccc(C(=O)Nc3cccc(C(=O)O)c3)c2n1` [compound 5], the AC50 was found to be 2.87 µM and the Emax was 175%.

With `Cc1cc(C)n2ccc(C(=O)Nc3cccc(C(=O)ON4C(=O)CCC4=O)c3)c2n1` [compound 6], the concentration at half-maximal activity (AC50) worked out at 4.59 µM and the Emax was 460%.

Take `Cc1cc(C)n2ccc(C(=O)Nc3cccc(N)c3)c2n1` [compound 7]: the activity was half-maximal at 3.39 µM (AC50) and the Emax is 210%.

As to `Cc1cc(C)n2ccc(C(=O)Nc3cccc(NC(=O)CCl)c3)c2n1` [compound 8], the activity was half-maximal at 3.43 µM (AC50) and the Emax was determined as 480%.

For `Cc1cc(C)n2ccc(C(=O)Nc3cccc(C(C)C)c3)c2n1` [compound 9], the activity was half-maximal at 2.23 µM (AC50) and the Emax worked out at 280%.

Take `Cc1cc(C)n2ccc(C(=O)Nc3cccc4c3CCC4)c2n1` [compound 10]: the AC50 amounted to 0.77 µM and the Emax worked out at 202%.

For `Cc1cc(C)n2ccc(C(=O)Nc3cccc4c3CCCC4)c2n1` [compound 11], the AC50 is 1.41 µM and the maximum response (Emax) was 400%.

On to `Cc1cc(C)n2ccc(C(=O)Nc3cccc(CC(C)C)c3)c2n1` [compound 12], for which the AC50 came out at 3.44 µM and the Emax was 300%.

On to `COC(=O)CCc1ccc(NC(=O)c2ccn3c(C)cc(C)nc23)cc1` [compound 13], for which the half-maximal activity concentration (AC50) was found to be 0.63 µM and the Emax was 180%.

As for `C=CC(=O)Nc1cccc(NC(=O)c2ccn3c(C)cc(C)nc23)c1` [compound 14], half-maximal activity (AC50) was put at 6.46 µM.

Turning to `Cc1cc(C)n2ccc(C(=O)Nc3ccc(CCC(=O)O)cc3)c2n1` [compound 15], the half-maximal activity concentration (AC50) worked out at 36.6 µM and the Emax came to 700%.

`Cc1cc(C)n2ccc(C(=O)Nc3ccc4c(c3)C(=O)CC4)c2n1` [compound 16]: the AC50 is 1.49 µM and the Emax is 225%.

As for `Cc1cc(C)n2ccc(C(=O)Nc3ccc4c(c3)C(=O)CCC4)c2n1` [compound 17], the AC50 came out at 3.88 µM and the Emax came to 750%.

On to `CCOC(=O)c1ccc(NC(=O)c2ccn3c(C)cc(C)nc23)cc1` [compound 19], for which the AC50 turned out to be 0.71 µM and the Emax was 250%.

Turning to `CCOC(=O)Cc1ccc(NC(=O)c2ccn3c(C)cc(C)nc23)cc1` [compound 20], the AC50 was determined as 6.1 µM and the Emax came to 550%.

Consider `Cc1cc(C)n2ccc(C(=O)Nc3ccc(C(=O)O)cc3)c2n1` [compound 21], for which the activity was half-maximal at 35.5 µM (AC50) and the maximal response (Emax) is 622%.

For `Cc1cc(C)n2ccc(C(=O)Nc3ccc(CC(=O)O)cc3)c2n1` [compound 22], half-maximal activity (AC50) was put at 35.5 µM and the Emax turned out to be 429%.

For the molecule `Cc1cc(C)n2ccc(C(=O)NCC3COc4ccccc4O3)c2n1` (stereo not drawn) [compound 23], the AC50 is 28.2 µM and the maximal response (Emax) worked out at 644%.

For `Cc1cc(C)n2ccc(C(=O)Nc3ccc4c(c3)CCCC4)c2n1` [compound 24], the concentration at half-maximal activity (AC50) turned out to be 3.55 µM and the maximum response (Emax) is 527%.

Regarding `Cc1cc(C)n2ccc(C(=O)Nc3ccc4c(c3)COC4)c2n1` [compound 25], the activity was half-maximal at 7.94 µM (AC50) and the Emax was determined as 456%.

For the molecule `Cc1cc(C)n2ccc(C(=O)Nc3ccc4c(c3)CCC4)c2n1` [compound 26], the activity was half-maximal at 1.12 µM (AC50) and the Emax is 290%.

`Cc1cc(C)n2ccc(C(=O)Nc3ccc(CCC(=O)ON4C(=O)CCC4=O)cc3)c2n1` [compound 27]: the AC50 was found to be 2.82 µM and the maximal effect (Emax) was 620%.

In the case of `Cc1cc(C)n2ccc(C(=O)Nc3ccc(C(=O)ON4C(=O)CCC4=O)cc3)c2n1` [compound 28], the half-maximal activity concentration (AC50) was found to be 50 µM and the Emax came to 115%.

As for `Cc1cc(C)n2ccc(C(=O)Nc3ccc(CC(=O)ON4C(=O)CCC4=O)cc3)c2n1` [compound 29], the AC50 stood at 4.47 µM and the maximum response (Emax) came out at 374%.

For the molecule `Cc1cc(C)n2ccc(C(=O)Nc3ccc4c(c3)CCO4)c2n1` [compound 30], the concentration at half-maximal activity (AC50) came out at 1.12 µM and the maximum response (Emax) came to 198%.

`Cc1cc(C)n2ccc(C(=O)Nc3ccc4c(c3)CCCC4=O)c2n1` [compound 31]: the AC50 was 1 µM and the maximal response (Emax) came out at 355%.

On to `Cc1cc(C)n2ccc(C(=O)Nc3c(C)nn(Cc4ccccc4)c3C)c2n1` [compound 33], for which the half-maximal activity concentration (AC50) was found to be 39.8 µM and the maximal response (Emax) turned out to be 914%.

`COC(=O)CCc1cccc(NC(=O)c2ccn3c(C)cc(C)nc23)c1` [compound 34]: half-maximal activity (AC50) was put at 3.55 µM and the Emax stood at 578%.

Take `Cc1cc(C)n2ccc(C(=O)Nc3ccccc3Oc3ccccc3)c2n1` [compound 35]: the activity was half-maximal at 2.24 µM (AC50) and the maximum response (Emax) came to 298%.

Regarding `Cc1cc(C)n2ccc(C(=O)Nc3cccc(Oc4ccccc4)c3)c2n1` [compound 36], the half-maximal activity concentration (AC50) was found to be 1.42 µM and the Emax turned out to be 280%.

Turning to `Cc1cc(C)n2ccc(C(=O)Nc3cccc(CCC(=O)O)c3)c2n1` [compound 37], the AC50 is 8.91 µM and the Emax is 427%.

In the case of `Cc1cc(C)n2ccc(C(=O)Nc3cccc(CCC(=O)ON4C(=O)CCC4=O)c3)c2n1` [compound 38], the activity was half-maximal at 4.47 µM (AC50) and the maximal response (Emax) worked out at 810%.

Turning to `COC(=O)Cc1cc(NC(=O)c2ccn3c(C)cc(C)nc23)ccc1-c1cn(CCOCCOCCO)nn1` [compound 39], the activity was half-maximal at 10 µM (AC50).

With `COC(=O)Cc1cc(NC(=O)c2ccn3c(C)cc(-c4cccnc4)nc23)ccc1-c1cn(CCOCCOCCO)nn1` [compound 40], the activity was half-maximal at 4.47 µM (AC50). This AC50 is about 2.2-fold lower than that of the molecule before.

On to `Cc1cc(C)n2ccc(C(=O)Nc3ccc(-c4cn(CCOCCOCCO)nn4)c(CC(=O)O)c3)c2n1` [compound 41], for which the AC50 stood at 28.2 µM.

Turning to `Cc1cc(C)n2ccc(C(=O)NCc3ccccc3CNC(=O)c3ccn4c(C)cc(C)nc34)c2n1` [compound 42], the AC50 is 5 µM and the maximal effect (Emax) came out at 715%.

As to `Cc1cc(C)n2ccc(C(=O)Nc3cccc(-c4ccccc4)c3)c2n1` [compound 43], the AC50 was 1.41 µM and the maximal effect (Emax) came to 296%.

For `Cc1cc(C)n2ccc(C(=O)Nc3nc4c(s3)CCCC4)c2n1` [compound 44], half-maximal activity (AC50) was put at 1.58 µM and the Emax was 342%.

Turning to `Cc1cc(C)n2ccc(C(=O)Nc3nc4c(s3)CC(C)CC4)c2n1` (stereo not drawn) [compound 45], half-maximal activity (AC50) was put at 1.78 µM and the maximum response (Emax) turned out to be 325%.

In the case of `Cc1cc(C)n2ccc(C(=O)Nc3nc4c(s3)CC(C)(C)CC4)c2n1` [compound 46], the concentration at half-maximal activity (AC50) worked out at 1.12 µM and the Emax was 230%.
